Source: PubChem BioAssay (NCI)
Where “and” joins values, the source holds several entries; their conditions need not be identical. Equal entries are not always repeated.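 Protocol summary: plate cells (96-well), add compound at 5 concentrations, incubate 48 h, interpolate endpoints linearly. The concentration for 50% growth inhibition is given as GI50. TGI: concentration producing complete growth inhibition.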

Key:
Assay in all cases: NCI-60 cell line screen, 48 h
[1] = tested on: ACHN renal
[2] = tested on: CAKI-1 renal
[3] = tested on: UACC-257 melanoma
[4] = tested on: A549 NSCLC
[5] = tested on: A498 renal
[6] = tested on: CCRF-CEM leukemia
[7] = tested on: IGROV1 ovarian
[8] = tested on: HOP-92 NSCLC
[9] = tested on: NCI-H522 lung
[10] = tested on: LOX IMVI melanoma

SMILES	TGI [1]	TGI [2]	TGI [3]	TGI [4]	TGI [5]	TGI [6]	TGI [7]	TGI [8]	TGI [9]	TGI [10]	GI50 [1]	GI50 [2]	GI50 [3]	GI50 [4]	GI50 [5] [µM]	GI50 [6]	GI50 [7]	GI50 [8]	GI50 [9]	GI50 [10]
COc1cc(OC(=O)c2ccccc2)cc2c1C(=O)C=CC2=O	26.4 µM	37 µM	31.6 µM	68.4 µM	37.8 µM	5.63 µM	29 µM	5.05 µM	12.4 µM	36.3 µM										
O=C(CCCCCCCCC(=O)N/N=C\c1ccccc1O)N/N=C\c1ccccc1O	20.1 µM	14.9 µM	4.07 µM	> 25.2 µM	26.9 µM	17.4 µM	54.5 µM	0.889 µM	> 100 µM	6.07 µM	0.235 µM	0.318 µM	0.368 µM	0.81 µM	3.1	228 nM	1.73 µM	0.216 µM	0.257 µM	273 nM
COC(=O)c1nc(-c2ccccc2)oc1S(=O)(=O)Cc1ccccc1	3.15 µM	3.42 µM	27.2 µM	33.6 µM	29.7 µM	8.41 µM	7.21 µM	3.12 µM	3.29 µM	8.7 µM	1.77 µM	1.84 µM	13.7 µM	17.5 µM	15.9	2910 nM	2.75 µM	1.61 µM	1.52 µM	2880 nM
CC1CCC(NC(=O)N(CCCl)N=O)CC1 (stereo not drawn)	91.7 µM and 103 µM	37.5 µM and 53.2 µM	89.8 µM	56.5 µM and 149 µM	124 µM	30.3 µM and 55.8 µM	80.7 µM and 89 µM	64.2 µM and 68.8 µM	31.6 µM and 90 µM	39.8 µM and 52.6 µM	31.6 µM	18.9 µM	33.5 µM	23.6 µM		8110 nM	22.6 µM		14.1 µM	14700 nM
COc1cc(C[C@H]2c3cc(OC)c(OC)cc3CCN2C)c(Oc2cc3c(cc2OC)-c2c(OC)c(OC)cc4c2[C@H](C3)N(C)CC4)cc1OC	30 µM and 27.5 µM	23.9 µM and 42.6 µM	8.76 µM and 3.37 µM	28.2 µM and 29.4 µM	25.1 µM and 21.2 µM	27.6 µM and 22.6 µM	32.6 µM and 28.3 µM	8.94 µM and 28.8 µM	16.2 µM and 17 µM	14.7 µM and 24.3 µM	14.5 µM	16.1 µM	1.8 µM	15.6 µM		6590 nM	14.2 µM	13.3 µM	5.13 µM	9210 nM
COc1ccc2c(c1)c(=O)oc1cc(OC/C(C)=N\O)ccc12	> 100 µM	> 100 µM	> 100 µM	> 100 µM	> 100 µM	> 100 µM	> 100 µM	> 100 µM	> 100 µM	> 100 µM	29.9 µM	> 100 µM	> 100 µM	> 100 µM	> 100	> 100000 nM	> 100 µM	69.5 µM	44.5 µM	> 100000 nM
CCC1C2Cc3ccc(O)cc3C1(CC)CCN2C (stereo not drawn)	> 100 µM	> 100 µM	> 100 µM	> 100 µM	> 100 µM	> 100 µM	> 100 µM	> 100 µM	> 100 µM	> 100 µM										
CCN(CC)CCCC(C)Nc1ccnc2cc(Oc3ccccc3)ccc12 (stereo not drawn)	26.2 µM and 29 µM	37.9 µM and 36.2 µM	3.59 µM and 3.94 µM	14.8 µM and 47.6 µM	7.85 µM and 28.5 µM	12.8 µM and 55.6 µM	16.9 µM and > 100 µM	20.5 µM and 27 µM	13 µM and 17 µM	5.06 µM and 6.82 µM	5.61 µM and 6.72 µM	13.1 µM and 5.96 µM	1.95 µM and 2.09 µM	4.13 µM and 14.2 µM		2640 nM and 4690 nM	3.55 µM and 14.1 µM	5.62 µM and 3.78 µM	3.06 µM and 3.77 µM	2050 nM and 2130 nM
CCOc1ccccc1N1C(=O)C(=O)C(c2nc3ccccc3o2)C(=O)C1=O	> 100 µM	> 100 µM	> 100 µM	> 100 µM	> 100 µM	> 100 µM	> 100 µM	> 100 µM	> 100 µM	> 100 µM										
CN(C)CCN1C(=O)c2ccccc2N(C)c2ccccc21	> 100 µM	> 100 µM	> 100 µM	> 100 µM	> 100 µM	> 100 µM	> 100 µM	> 100 µM	> 100 µM	> 100 µM	> 100 µM	> 100 µM	> 100 µM	> 100 µM	> 100	> 100000 nM	> 100 µM	> 100 µM	> 100 µM	> 100000 nM
COc1cc([C@@H]2OC[C@@H]3C(c4cc(OC)c5c(c4)OCO5)OC[C@@H]32)cc(OC)c1OC (stereo partly drawn)	> 100 µM	> 100 µM	> 100 µM	> 100 µM	> 100 µM	> 100 µM	> 100 µM	> 100 µM	> 100 µM	> 100 µM										
CCC[CH2][Sn]1([CH2]CCC)[O]C(=O)c2cccnc2[O]1	5.21 µM	3.93 µM	5.04 µM	33 µM	7.27 µM	3.08 µM	18.4 µM	4.63 µM	1.67 µM	3.51 µM	2.14 µM	0.74 µM	1.55 µM	18.2 µM	2.72	731 nM	4.57 µM	1.01 µM	0.476 µM	1810 nM
COc1cc(/C=C2/C(=O)N(C(=O)OCC(C)C)C(Cc3cc(OC)c(OC)c(C)c3OC)C(=O)N2Cc2ccccc2)c(OC)c(C)c1OC (stereo not drawn)	> 100 µM	> 100 µM	> 100 µM	> 100 µM	> 100 µM	> 100 µM	> 100 µM	> 100 µM	> 100 µM	> 100 µM										
O=C1Nc2ccccc2/C1=C/C(=O)c1coc2c1C(=O)c1ccccc1C2=O	> 100 µM	> 100 µM	> 100 µM	> 100 µM	> 100 µM	> 100 µM	> 100 µM	> 100 µM	> 100 µM	> 100 µM	> 100 µM	34.2 µM	> 100 µM	> 100 µM	45.7	> 100000 nM	> 100 µM	59.7 µM	> 100 µM	> 100000 nM
COc1ccc(C(=O)OC2C(OC3C(O)COC(O[C@H]4C[C@H]5[C@@H]6CC=C7C[C@@H](O)CC[C@]7(C)[C@H]6CC[C@]5(C)[C@H]4[C@H](C)C(=O)CCC(C)C)C3OC(N)=O)OCC(O)C2O)cc1 (stereo partly drawn)	5.53 µM	0.975 µM	0.472 µM	4.75 µM	0.0351 µM	0.0966 µM	3.69 µM	1.2 µM	0.485 µM	0.158 µM	0.471 µM	0.102 µM	0.03 µM	0.0773 µM	0.00699	< 3 nM	0.0282 µM	0.0686 µM	0.0658 µM	13.7 nM
COc1ccc(C(=O)c2cc(OC)c(OC)c(OC)c2)cc1OC(=O)CCl	98.7 µM	> 100 µM	> 100 µM	> 100 µM	7.01 µM	> 100 µM	> 100 µM	> 100 µM	> 100 µM	> 100 µM	< 0.0267 µM	0.151 µM	> 100 µM	0.164 µM	2.07	29.7 nM	0.359 µM		0.0196 µM	< 19.9 nM
O=C(O)CNC(=O)c1ccc(-c2ccccc2)cc1	> 100 µM	> 100 µM	> 100 µM	> 100 µM	> 100 µM	> 100 µM	> 100 µM	> 100 µM	> 100 µM	> 100 µM										
COc1cc(/C=C/C(=O)c2cccc(Nc3nc(Nc4ccccc4)nc(Nc4ccccc4)n3)c2)cc(OC)c1OC	> 100 µM	> 26.2 µM	> 100 µM	> 100 µM	> 49.9 µM	5.67 µM	> 100 µM	> 31.2 µM	> 100 µM	> 45.1 µM	24.1 µM		25 µM	36.6 µM	7.47	904 nM	3.22 µM	1.36 µM	5.11 µM	6320 nM
Cc1c(C(N)=O)sc2c1C(=O)N(Cc1ccccc1)C1=NN=C(c3ccc(Cl)cc3)CN12	11.6 µM	10.3 µM	16.5 µM	13.5 µM	12.7 µM	43.1 µM	22.3 µM	14.7 µM	13.2 µM	10.8 µM	3.02 µM	1.17 µM	3.75 µM	3.57 µM	2.88	1490 nM	3.13 µM	3.89 µM	3.19 µM	1620 nM
O=[N+]([O-])O.[Cu+2].[NH-]CC[NH-].[NH-]CC[NH-]	> 10 µM	> 10 µM	> 10 µM	> 10 µM	> 10 µM	> 10 µM	> 10 µM	> 10 µM	> 10 µM	> 10 µM	> 10 µM	> 10 µM	> 10 µM	> 10 µM	> 10	> 10000 nM	> 10 µM	> 10 µM	> 10 µM	> 10000 nM
CCS(CC)(CC)CC1CCCC2=CCC(P(=O)(c3ccccc3)c3ccccc3)CC21 (stereo not drawn)	22.4 µM	24.4 µM		18 µM	28 µM	31 µM	28.1 µM	16.4 µM	25.5 µM	34.9 µM										
